Laboratory results published in PubChem BioAssay AID296 (DTP/NCI, 2004).
Where “and” joins values, the source holds several entries; their conditions need not be identical. Identical values can stand only once. Results filed as inconclusive are left out.

Test system: MX-1 breast xenograft, nude mice, tumor weight T/C
Assay: NCI In Vivo Anticancer Drug Screen. Data for tumor model Human Mammary Carcinoma MX-1 Xenograft (intrarenal inoculation) in NU/NU Swiss (nude) mice
Conditions: endpoint: mean tumor weight change, higher = larger tumour
Outline: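 Read-out: treated (T) over vehicle control (C) ratio of survival or tumor size. Dosing in animals carrying the transplanted tumor.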

[1] = dose: 300.0 mg/kg/injection, schedule: Q04DX003 (sc), vehicle: saline
[2] = dose: 400.0 mg/kg/injection, schedule: Q04DX003 (sc), vehicle: saline with Tween-80
[3] = dose: 300.0 mg/kg/injection, schedule: Q04DX003 (sc), vehicle: saline with Tween-80
[4] = dose: 600.0 mg/kg/injection, schedule: Q04DX003 (sc), vehicle: saline with Tween-80

## C[n+]1ccc(Nc2ccc(NC(=O)c3ccc(Nc4cc[n+](C)c5ccc(N)cc45)cc3)cc2)cc1
dose: 50.0 mg/kg/injection, schedule: Q04DX003 (sc), vehicle: distilled water + Tween-80
  T/C: 59 % of control

## C[C@H](N)C(=O)N[C@@H]1[C@H]2C(=C(O)C[C@@H](O)[C@@H]2O)C(=O)O[C@@H]1C
[1]
  T/C: 81 % of control
dose: 600.0 mg/kg/injection, schedule: Q04DX003 (sc), vehicle: saline
  T/C: 67 % of control
dose: 1200.0 mg/kg/injection, schedule: Q04DX003 (sc), vehicle: saline
  T/C: 88 % of control
dose: 2400.0 mg/kg/injection, schedule: Q04DX003 (sc), vehicle: saline
  T/C: 99 % of control

## O=c1n(CC2CO2)c(=O)n(CC2CO2)n1CC1CO1 (stereo not drawn)
dose: 9.38 mg/kg/injection, schedule: Q04DX003 (sc), vehicle: saline
  T/C: 57 % of control
dose: 18.7 mg/kg/injection, schedule: Q04DX003 (sc), vehicle: saline
  T/C: 4 % of control
dose: 18.75 mg/kg/injection, schedule: Q04DX003 (sc), vehicle: saline
  T/C: 2 % of control
dose: 29.0 mg/kg/injection, schedule: Q04DX003 (sc), vehicle: saline
  T/C: -11 % of control
dose: 37.5 mg/kg/injection, schedule: Q04DX003 (sc), vehicle: saline
  T/C: -83 % of control and -73 % of control

## COC1=C(OC)C(=O)C(Sc2ccc3ccccc3c2)=CC1=O
dose: 100.0 mg/kg/injection, schedule: Q04DX003 (sc), vehicle: saline with Tween-80
  T/C: 97 % of control
dose: 200.0 mg/kg/injection, schedule: Q04DX003 (sc), vehicle: saline with Tween-80
  T/C: 68 % of control
[2]
  T/C: 88 % of control
dose: 800.0 mg/kg/injection, schedule: Q04DX003 (sc), vehicle: saline with Tween-80
  T/C: 61 % of control

## COc1ccc2c(NCCCCCCNc3c4ccccc4nc4cc(OC)ccc34)c3ccccc3nc2c1
dose: 1.25 mg/kg/injection, schedule: Q01DX010 (sc), vehicle: lactic acid
  T/C: 81 % of control
dose: 2.5 mg/kg/injection, schedule: Q01DX010 (sc), vehicle: lactic acid
  T/C: 165 % of control
dose: 5.0 mg/kg/injection, schedule: Q01DX010 (sc), vehicle: lactic acid
  T/C: 79 % of control
dose: 10.0 mg/kg/injection, schedule: Q01DX010 (sc), vehicle: lactic acid
  T/C: 92 % of control

## C(=N/NC1=NCCN1)/c1c2ccccc2c(/C=N\NC2=NCCN2)c2ccccc12
dose: 75.0 mg/kg/injection, schedule: Q04DX003 (sc), vehicle: suspension in saline
  T/C: 11 % of control and 25 % of control
dose: 150.0 mg/kg/injection, schedule: Q04DX003 (sc), vehicle: suspension in saline
  T/C: 17 % of control and 18 % of control

## O=NNc1ccc(Cl)cn1
dose: 18.7 mg/kg/injection, schedule: Q04DX003 (ip), vehicle: water
  T/C: 24 % of control
dose: 37.5 mg/kg/injection, schedule: Q04DX003 (ip), vehicle: water
  T/C: -51 % of control

## CN1C(=O)C(=Cc2ccc(O)cc2)C(=O)N(C)C1=O
[3]
  T/C: 96 % of control
[4]
  T/C: 92 % of control
dose: 1200.0 mg/kg/injection, schedule: Q04DX003 (sc), vehicle: saline with Tween-80
  T/C: 99 % of control
dose: 2400.0 mg/kg/injection, schedule: Q04DX003 (sc), vehicle: saline with Tween-80
  T/C: 107 % of control

## N#Cc1c(-c2ccc(F)cc2)c(-c2ccc(F)cc2)nn(CCO)c1=O
dose: 100.0 mg/kg/injection, schedule: Q04DX003 (ip), vehicle: distilled water + Tween-80
  T/C: 101 % of control
dose: 200.0 mg/kg/injection, schedule: Q04DX003 (ip), vehicle: distilled water + Tween-80
  T/C: 80 % of control

## O=C1N=C(Oc2ccccc2)SC1=O
[2]
  T/C: 67 % of control

## CN(CO)c1nc(N(C)CO)nc(N(C)CO)n1
dose: 12.5 mg/kg/injection, schedule: Q01DX010 (sc), vehicle: saline
  T/C: 157 % of control
dose: 25.0 mg/kg/injection, schedule: Q01DX010 (sc), vehicle: saline
  T/C: 55 % of control
dose: 50.0 mg/kg/injection, schedule: Q01DX010 (sc), vehicle: saline
  T/C: 4 % of control
dose: 100.0 mg/kg/injection, schedule: Q01DX010 (sc), vehicle: saline
  T/C: -81 % of control
dose: 100.0 mg/kg/injection, schedule: Q01DX010 (sc), vehicle: suspension in saline
  T/C: -100 % of control
dose: 150.0 mg/kg/injection, schedule: Q04DX003 (sc), vehicle: saline
  T/C: -80 % of control and -77 % of control and -57 % of control
dose: 200.0 mg/kg/injection, schedule: Q01DX010 (sc), vehicle: suspension in saline
  T/C: -100 % of control
[1]
  T/C: -85 % of control and -84 % of control
dose: 300.0 mg/kg/injection, schedule: Q04DX003 (sc), vehicle: suspension in saline
  T/C: -87 % of control and -100 % of control

## COc1cccc2c1C(=O)c1c(O)c3c(c(O)c1C2=O)C[C@@](O)(C(=O)CO)C[C@@H]3OC1CC(OC(C)=O)C(OC(C)=O)C(C)O1 (stereo partly drawn)
dose: 6.25 mg/kg/injection, schedule: Q01DX010 (sc), vehicle: distilled water + Tween-80
  T/C: 82 % of control
dose: 12.5 mg/kg/injection, schedule: Q01DX010 (sc), vehicle: distilled water + Tween-80
  T/C: 96 % of control

## CN(C)C1C(=O)C(C(=O)NP(=O)(NCCCO)N(CCCl)CCCl)=C(O)C2(O)C(=O)C3=C(O)c4c(O)cccc4C(C)(O)C3CC12 (stereo not drawn)
dose: 150.0 mg/kg/injection, schedule: Q04DX003 (sc), vehicle: saline with Tween-80
  T/C: -100 % of control
[3]
  T/C: -98 % of control
[4]
  T/C: -100 % of control
